Key:
angiotensin II receptors = test: Angiotensin II receptor binding (displacement of 3H-angiotensin II), rat adrenocortical microsomes; conditions: 2 nM 3H-angiotensin II
Protocol: The source of the angiotensin II receptors utilized in the screen is from rat adrenocortical microsomes. The cortices are placed in ice cold sucrose buffer (0.2 m sucrose, 1 mm EDTA, 10 mm Trizma base, pH 7.4) and homogenized in a chilled ground glass tissue grinder. The homogenate is centrifuged at 3000×g for 10 min. and the resultant supernatant is decanted through cheesecloth and centrifuged at 12,000×g for 3 min. […] Binding assays are performed by incubating aliquots of freshly prepared microsomes in the absence or presence of compound (40 uM final concentration). Ten minutes later, ^3 H-angiotensin II is added to each tube (2 nM final concentration) and incubated for 60 minutes at […]. The reaction is terminated by the addition of 3 ml of cold assay buffer without albumin and the bound and free radioactivity is separated rapidly through glass-fiber filters prewetted with assay buffer. After two additional 3 ml rinses, the filters are placed in scintillation fluid and counted in a scintillation counter to determine trapped radioactivity.

[1] = test system: angiotensin II (AII) vasopressor response; test: AII challenge: antagonism of the vasopressor response of angiotensin II in conscious Okamoto-Aoki SHR; format: in vivo, rat (Okamoto-Aoki SHR); conditions: for inhibition in vivo at 1 mg/kg / inhibition in vivo at 2 mg/kg: Rattus norvegicus, iv
Method in brief: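 Conscious male Okamoto-Aoki spontaneously hypertensive rats, 16-20 weeks old and about 330 g, received caudal arterial and venous cannulae under local 2% procaine anesthesia. They were kept upright in restraining cages while pulsatile blood pressure was recorded by pressure transducer. The systolic pressure rise to i.v. angiotensin II was measured before and after test compound dosing. Inhibition was expressed relative to each rat's predose response, taken as 100%.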

CCCCc1nc2ccc(C(OC)c3ccccc3)cc2c(=O)n1Cc1ccc(-c2ccccc2-c2nnn[nH]2)cc1 (stereo not shown) [Example 56, 2-Butyl-6-(methoxyphenylmethyl)-3-[[2'-(1H-tetrazol-5-yl)[1,1'-biphenyl]-4-yl]methyl]-4(3H)-quinazolinone]
IC50 (angiotensin II receptors): 8.6 nM | Response change (systolic BP increase to AII) ([1]; 1 mg/kg iv, AII .025 ug/kg, 15 min): 18 mmHg | Response change (systolic BP increase to AII) ([1]; 1 mg/kg iv, AII .025 ug/kg, 30 min): 27 mmHg | Response change (systolic BP increase to AII) ([1]; 1 mg/kg iv, AII .025 ug/kg, 60 min): 20 mmHg | Response change (systolic BP increase to AII) ([1]; 1 mg/kg iv, AII .05 ug/kg, 15 min): 15 mmHg | Response change (systolic BP increase to AII) ([1]; 1 mg/kg iv, AII .05 ug/kg, 30 min): 15 mmHg | Response change (systolic BP increase to AII) ([1]; 1 mg/kg iv, AII .05 ug/kg, 60 min): 20 mmHg | Response change (systolic BP increase to AII) ([1]; 1 mg/kg iv, AII .1 ug/kg, 15 min): 15 mmHg | Response change (systolic BP increase to AII) ([1]; 1 mg/kg iv, AII .1 ug/kg, 30 min): 20 mmHg | Response change (systolic BP increase to AII) ([1]; 1 mg/kg iv, AII .1 ug/kg, 60 min): 30 mmHg | Response change (systolic BP increase to AII) ([1]; 2 mg/kg iv, AII .025 ug/kg, 90 min): 10 mmHg | Response change (systolic BP increase to AII) ([1]; 2 mg/kg iv, AII .025 ug/kg, 120 min): 20 mmHg | Response change (systolic BP increase to AII) ([1]; 2 mg/kg iv, AII .025 ug/kg, 150 min): 15 mmHg | Response change (systolic BP increase to AII) ([1]; 2 mg/kg iv, AII .05 ug/kg, 90 min): 15 mmHg | Response change (systolic BP increase to AII) ([1]; 2 mg/kg iv, AII .05 ug/kg, 120 min): 15 mmHg | Response change (systolic BP increase to AII) ([1]; 2 mg/kg iv, AII .05 ug/kg, 150 min): 10 mmHg | Response change (systolic BP increase to AII) ([1]; 2 mg/kg iv, AII .1 ug/kg, 90 min): 5 mmHg | Response change (systolic BP increase to AII) ([1]; 2 mg/kg iv, AII .1 ug/kg, 120 min): 15 mmHg | Response change (systolic BP increase to AII) ([1]; 2 mg/kg iv, AII .1 ug/kg, 150 min): 20 mmHg | inhibition in vivo at 1 mg/kg ([1]; 0.25 h, 1 mg/kg iv, AII .025 ug/kg, 15 min): 40% | inhibition in vivo at 1 mg/kg ([1]; 0.25 h, 1 mg/kg iv, AII .05 ug/kg, 15 min): 57% | inhibition in vivo at 1 mg/kg ([1]; 0.25 h, 1 mg/kg iv, AII .1 ug/kg, 15 min): 57% | inhibition in vivo at 1 mg/kg ([1]; 0.5 h, 1 mg/kg iv, AII .025 ug/kg, 30 min): 27% | inhibition in vivo at 1 mg/kg ([1]; 0.5 h, 1 mg/kg iv, AII .05 ug/kg, 30 min): 57% | inhibition in vivo at 1 mg/kg ([1]; 0.5 h, 1 mg/kg iv, AII .1 ug/kg, 30 min): 43% | inhibition in vivo at 1 mg/kg ([1]; 1 h, 1 mg/kg iv, AII .025 ug/kg, 60 min): 33% | inhibition in vivo at 1 mg/kg ([1]; 1 h, 1 mg/kg iv, AII .05 ug/kg, 60 min): 43% | inhibition in vivo at 1 mg/kg ([1]; 1 h, 1 mg/kg iv, AII .1 ug/kg, 60 min): 14% | inhibition in vivo at 2 mg/kg ([1]; 1.5 h, 2 mg/kg iv, AII .025 ug/kg, 90 min): 67% | inhibition in vivo at 2 mg/kg ([1]; 1.5 h, 2 mg/kg iv, AII .05 ug/kg, 90 min): 57% | inhibition in vivo at 2 mg/kg ([1]; 1.5 h, 2 mg/kg iv, AII .1 ug/kg, 90 min): 86% | inhibition in vivo at 2 mg/kg ([1]; 2 h, 2 mg/kg iv, AII .025 ug/kg, 120 min): 33% | inhibition in vivo at 2 mg/kg ([1]; 2 h, 2 mg/kg iv, AII .05 ug/kg, 120 min): 57% | inhibition in vivo at 2 mg/kg ([1]; 2 h, 2 mg/kg iv, AII .1 ug/kg, 120 min): 57% | inhibition in vivo at 2 mg/kg ([1]; 2.5 h, 2 mg/kg iv, AII .025 ug/kg, 150 min): 50% | inhibition in vivo at 2 mg/kg ([1]; 2.5 h, 2 mg/kg iv, AII .05 ug/kg, 150 min): 71% | inhibition in vivo at 2 mg/kg ([1]; 2.5 h, 2 mg/kg iv, AII .1 ug/kg, 150 min): 43%

From patent US5405849A, “Angiotensin II receptor blocking 2,3,6 substituted quinazolinones” (American Cyanamid Company, priority 1993, dated 1995)
